From PubChem BioAssay (NCI)
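Briefly, cells in 96-well plates were exposed to five compound concentrations for 48 h, and endpoints were estimated by linear interpolation. Here, GI50 denotes the concentration required for 50% inhibition of growth. The concentration for full growth arrest is given as TGI.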

What was measured:
Assay in all cases: NCI-60 cell line screen, 48 h
[1] = system: UO-31 renal
[2] = system: UACC-62 melanoma
[3] = system: HOP-92 NSCLC
[4] = system: SNB-19 CNS
[5] = system: SR leukemia
[6] = system: TK-10 renal
[7] = system: MOLT-4 leukemia
[8] = system: T-47D breast
[9] = system: HOP-62 NSCLC
[10] = system: ACHN renal
[11] = system: OVCAR-3 ovarian
[12] = system: HT29 colon
[13] = system: OVCAR-8 ovarian
[14] = system: A549 NSCLC
[15] = system: NCI-H226 lung
[16] = system: NCI/ADR-RES ovarian
[17] = system: SK-MEL-2 melanoma
[18] = system: SF-268 CNS
[19] = system: K-562 leukemia
[20] = system: SNB-75 CNS
[21] = system: MALME-3M melanoma
[22] = system: SF-295 CNS
[23] = system: M14 melanoma
[24] = system: 786-0 renal
[25] = system: SF-539 CNS
[26] = system: SK-OV-3 ovarian
[27] = system: OVCAR-5 ovarian
[28] = system: HS 578T breast

## CCOC(=O)c1ccc(NC2=C(Cl)C(=O)c3nc(C)ccc3C2=O)cc1
[1]
  GI50: 1.54 µM
  TGI: 3.01 µM
[2]
  GI50: 2.46 µM
  TGI: 11.2 µM
[3]
  GI50: 1.8 µM
  TGI: 3.48 µM
[4]
  GI50: 4.76 µM
  TGI: 89.4 µM
[5]
  GI50: 0.783 µM
  TGI: 3.57 µM
[6]
  GI50: 1.79 µM
  TGI: 3.24 µM
[7]
  GI50: 1.57 µM
  TGI: 5.32 µM
[8]
  GI50: 2.1 µM
  TGI: 5.09 µM
[9]
  GI50: 10.2 µM
  TGI: 23.9 µM
[10]
  GI50: 1.81 µM
  TGI: 3.35 µM
[11]
  GI50: 1.78 µM
  TGI: 3.22 µM
[12]
  GI50: 2.18 µM
  TGI: 5.13 µM
[13]
  GI50: 4.38 µM
  TGI: 18.4 µM
[14]
  GI50: 19.4 µM
  TGI: 70.5 µM
[15]
  GI50: 3.43 µM
  TGI: 17.5 µM
[16]
  GI50: 2.57 µM
  TGI: 9.61 µM
[17]
  GI50: 2.89 µM
  TGI: 9.46 µM
[18]
  GI50: 3.86 µM
  TGI: 17.1 µM
[19]
  GI50: 0.371 µM
  TGI: 3.3 µM
[20]
  GI50: 2.3 µM
  TGI: 10.3 µM
[21]
  GI50: 1.83 µM
  TGI: 3.62 µM
[22]
  GI50: 5.48 µM
  TGI: 19.1 µM
[23]
  GI50: 1.85 µM
  TGI: 3.76 µM
[24]
  GI50: 1.88 µM
  TGI: 3.93 µM
[25]
  GI50: 2.52 µM
  TGI: 6.72 µM
[26]
  GI50: 10.5 µM
  TGI: 23.9 µM
[27]
  GI50: 13.2 µM
  TGI: 33.7 µM
[28]
  GI50: 2.55 µM
  TGI: 7 µM
